The results in this text go back to US9745311B2, “Substituted pyrrolo[2,3-b]pyrazines as FGFR inhibitors” (Incyte Corporation, priority 2012, dated 2017).

Test [1] addresses FGFR1 (Homo sapiens (Human), UniProt P11362). The test can be described thus: FGFR Enzymatic Assay (FGFR1). Format: biochemical. To be noted: enzyme 0.02 nM, ATP 210 μM.
Method: (§1) The inhibitor potency of compounds was measured in an enzyme assay that measures peptide phosphorylation using FRET measurements to detect product formation. Inhibitors were serially diluted in DMSO and a volume of 0.5 μL was transferred to the wells of a 384-well plate. For FGFR3, a 10 μL volume of FGFR3 enzyme (Millipore) diluted in assay buffer (50 mM HEPES, 10 mM MgCl2, 1 mM EGTA, 0.01% Tween-20, 5 mM DTT, pH 7.5) was added to the plate and pre-incubated for 5-10 minutes. Appropriate controls (enzyme blank and enzyme with no inhibitor) were included on the plate. […] The plate was incubated at 25° C. for 1 hr. […] The plate was allowed to equilibrate for ˜1 hr before scanning the wells on a PheraStar plate reader.
(§2) GraphPad prism3 was used to analyze the data. The IC50 values were derived by fitting the data to the equation for a sigmoidal dose-response with a variable slope. Y=Bottom+(Top−Bottom)/(1+10^((Log IC50−X)*HillSlope)) where X is the logarithm of concentration and Y is the response.
Test [2] addresses FGFR2 (Homo sapiens (Human), UniProt P21802). Kind of test: FGFR Enzymatic Assay (FGFR2).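 Further: FRET read-out of peptide phosphorylation by the purified kinase, with enzyme-free blank and uninhibited enzyme as controls, potency from a variable-slope sigmoidal dose-response fit.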 It counts as biochemical.
Method: as §1, §2
For test [3], the target named is FGFR3 enzyme (Millipore) (Homo sapiens (Human), UniProt P22607). The conditions noted are these: read-out: FGFR3 IC50, ATP 140 μM.
FGFR3 enzyme (Millipore), sequence (P22607 23-806): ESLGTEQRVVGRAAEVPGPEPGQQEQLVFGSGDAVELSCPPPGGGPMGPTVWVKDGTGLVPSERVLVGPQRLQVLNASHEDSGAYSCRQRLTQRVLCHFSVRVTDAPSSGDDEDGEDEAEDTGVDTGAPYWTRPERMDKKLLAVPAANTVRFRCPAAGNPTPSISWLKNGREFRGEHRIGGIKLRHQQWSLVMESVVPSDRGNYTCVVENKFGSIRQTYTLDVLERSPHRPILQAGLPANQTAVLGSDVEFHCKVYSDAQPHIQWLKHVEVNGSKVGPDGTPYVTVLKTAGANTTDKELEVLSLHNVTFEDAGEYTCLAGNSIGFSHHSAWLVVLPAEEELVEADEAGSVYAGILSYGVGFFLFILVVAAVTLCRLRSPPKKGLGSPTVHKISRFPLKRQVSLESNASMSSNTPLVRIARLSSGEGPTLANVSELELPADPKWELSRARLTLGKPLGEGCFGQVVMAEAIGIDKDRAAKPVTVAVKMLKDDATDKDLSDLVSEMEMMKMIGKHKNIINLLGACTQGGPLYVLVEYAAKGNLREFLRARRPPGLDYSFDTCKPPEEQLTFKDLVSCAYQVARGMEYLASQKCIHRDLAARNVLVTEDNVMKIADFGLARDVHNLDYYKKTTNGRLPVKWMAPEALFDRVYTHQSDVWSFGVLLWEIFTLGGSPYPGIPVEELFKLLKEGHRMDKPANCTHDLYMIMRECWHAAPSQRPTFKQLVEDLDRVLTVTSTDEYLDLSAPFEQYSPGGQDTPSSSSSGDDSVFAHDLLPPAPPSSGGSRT
Method: as §1, §2
The mark [4] stands for this setting: enzyme 0.01 nM, ATP 100 μM, read-out: FGFR2 IC50.

Read-outs that look alike come from different tables or passages of the source.

FGFR2, sequence (P21802 22-821): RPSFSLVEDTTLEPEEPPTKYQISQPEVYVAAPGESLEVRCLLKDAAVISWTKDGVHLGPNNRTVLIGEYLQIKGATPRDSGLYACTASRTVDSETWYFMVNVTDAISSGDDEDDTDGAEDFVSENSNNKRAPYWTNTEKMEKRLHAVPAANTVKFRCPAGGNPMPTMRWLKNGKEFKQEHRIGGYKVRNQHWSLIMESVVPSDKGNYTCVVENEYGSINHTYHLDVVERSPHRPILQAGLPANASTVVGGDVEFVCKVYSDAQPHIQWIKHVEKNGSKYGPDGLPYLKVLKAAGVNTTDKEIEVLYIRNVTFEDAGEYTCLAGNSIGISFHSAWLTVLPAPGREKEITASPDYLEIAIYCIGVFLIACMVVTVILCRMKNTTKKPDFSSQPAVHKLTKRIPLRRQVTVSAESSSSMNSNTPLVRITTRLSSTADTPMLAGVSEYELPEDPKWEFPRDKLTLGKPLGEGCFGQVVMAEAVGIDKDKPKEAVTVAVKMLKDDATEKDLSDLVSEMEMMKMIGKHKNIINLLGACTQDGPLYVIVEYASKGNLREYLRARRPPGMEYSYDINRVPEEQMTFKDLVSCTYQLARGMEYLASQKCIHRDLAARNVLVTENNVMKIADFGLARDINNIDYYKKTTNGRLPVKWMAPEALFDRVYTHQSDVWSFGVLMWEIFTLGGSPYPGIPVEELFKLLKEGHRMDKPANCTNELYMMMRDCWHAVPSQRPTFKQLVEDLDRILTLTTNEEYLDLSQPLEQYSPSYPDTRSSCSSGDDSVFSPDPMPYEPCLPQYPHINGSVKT
FGFR1, sequence (P11362 22-822): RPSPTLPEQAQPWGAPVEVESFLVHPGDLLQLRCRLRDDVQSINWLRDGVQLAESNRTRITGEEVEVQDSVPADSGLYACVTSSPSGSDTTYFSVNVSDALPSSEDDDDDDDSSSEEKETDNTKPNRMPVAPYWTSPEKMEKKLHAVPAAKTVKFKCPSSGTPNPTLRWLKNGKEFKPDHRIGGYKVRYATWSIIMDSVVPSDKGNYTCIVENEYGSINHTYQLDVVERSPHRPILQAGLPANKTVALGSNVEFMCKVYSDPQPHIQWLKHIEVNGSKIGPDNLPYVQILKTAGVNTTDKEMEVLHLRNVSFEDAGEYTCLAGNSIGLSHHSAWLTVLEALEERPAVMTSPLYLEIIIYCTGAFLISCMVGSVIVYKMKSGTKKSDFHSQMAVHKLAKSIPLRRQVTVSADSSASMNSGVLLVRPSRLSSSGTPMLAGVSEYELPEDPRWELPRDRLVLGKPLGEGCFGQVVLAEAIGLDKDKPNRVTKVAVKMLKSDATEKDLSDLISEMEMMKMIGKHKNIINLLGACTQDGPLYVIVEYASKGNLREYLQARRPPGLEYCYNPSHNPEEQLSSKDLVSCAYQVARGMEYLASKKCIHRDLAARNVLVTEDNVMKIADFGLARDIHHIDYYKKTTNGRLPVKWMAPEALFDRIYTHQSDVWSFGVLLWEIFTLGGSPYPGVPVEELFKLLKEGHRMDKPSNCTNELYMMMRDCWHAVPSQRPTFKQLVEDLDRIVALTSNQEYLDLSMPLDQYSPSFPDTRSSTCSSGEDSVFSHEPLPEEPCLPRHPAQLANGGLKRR

In the case of `COc1ccc(-c2cc3nc(CCc4cc(OC)cc(OC)c4)cnc3[nH]2)cc1` [Example 5, 2-[2-(3,5-dimethoxyphenyl)ethyl]-6-(4-methoxyphenyl)-5H-pyrrolo[2,3-b]pyrazine], the IC50 in test [1], in test [2] (setting [4]) and in test [3] (class symbols) was under 100 nM each time.
Take `COc1cc(OC)c(F)c(CCc2cnc3[nH]c(-c4cn[nH]c4C)cc3n2)c1F` [Example 83, 2-[2-(2,6-difluoro-3,5-dimethoxyphenyl)ethyl]-6-(5-methyl-1H-pyrazol-4-yl)-5H-pyrrolo[2,3-b]pyrazine]: the IC50 in test [1], in test [2] (setting [4]) and in test [3] (class symbols) was under 100 nM each time.
With `COCc1ccc(-c2cc3nc(CCc4cc(OC)cc(OC)c4)cnc3[nH]2)cc1` [Example 12, 2-[2-(3,5-dimethoxyphenyl)ethyl]-6-[4-(methoxymethyl)phenyl]-5H-pyrrolo[2,3-b]pyrazine], the IC50 in test [1], in test [2] (setting [4]) and in test [3] (class symbols) was under 100 nM throughout.
Take `COc1cc(CCc2cnc3[nH]c(-c4ccc(N5CCN(C)C(=O)C5)cc4)cc3n2)cc(OC)c1` [Example 81, 4-(4-(2-(3,5-Dimethoxyphenethyl)-5H-pyrrolo[2,3-b]pyrazin-6-yl)phenyl)-1-methylpiperazin-2-one]: the IC50 in test [1], in test [2] (setting [4]) and in test [3] (class symbols) was under 100 nM in each case.
As for `COc1cc(CCc2cnc3[nH]c(-c4ccc(N5CCN(C)CC5)cc4)c(C#N)c3n2)cc(OC)c1` [Example 45, 2-[2-(3,5-dimethoxyphenyl)ethyl]-6-[4-(4-methylpiperazin-1-yl)phenyl]-5H-pyrrolo[2,3-b]pyrazine-7-carbonitrile], the IC50 in test [1], in test [2] (setting [4]) and in test [3] (class symbols) was under 100 nM throughout.
Take `COc1cc(CCc2cnc3[nH]c(-c4ccc(C(=O)O)cc4)cc3n2)cc(OC)c1` [Example 15, 4-{2-[2-(3,5-dimethoxyphenyl)ethyl]-5H-pyrrolo[2,3-b]pyrazin-6-yl}benzoic acid]: the half-inhibitory concentration (IC50) in test [1], in test [2] (setting [4]) and in test [3] (class symbols) was under 100 nM throughout.
Regarding `COc1cc(CCc2cnc3[nH]c(-c4cnn(CC(C)(C)O)c4)cc3n2)cc(OC)c1` [Example 33, 1-(4-{2-[2-(3,5-dimethoxyphenyl)ethyl]-5H-pyrrolo[2,3-b]pyrazin-6-yl}-1H-pyrazol-1-yl)-2-methylpropan-2-ol], the IC50 in test [1], in test [2] (setting [4]) and in test [3] (class symbols) was under 100 nM in each case.
`COc1cc(OC)c(F)c(CCc2cnc3[nH]c(-c4cnn(CC(C)(C)O)c4)cc3n2)c1F` [Example 88, 1-(4-(2-(2,6-difluoro-3,5-dimethoxyphenethyl)-5H-pyrrolo[2,3-b]pyrazin-6-yl)-1H-pyrazol-1-yl)-2-methylpropan-2-ol]: the IC50 in test [1], in test [2] (setting [4]) and in test [3] (class symbols) was under 100 nM in each case.
Turning to `COc1cc(CCc2cnc3[nH]c(-c4cnc(N(C)C)nc4)cc3n2)cc(OC)c1` [Example 20, 5-{2-[2-(3,5-dimethoxyphenyl)ethyl]-5H-pyrrolo[2,3-b]pyrazin-6-yl}-N,N-dimethylpyrimidin-2-amine], the results for the IC50 in test [1], in test [2] and in test [3] (numeric bounds) were under 100 nM, 100 to 500 nM and over 1000 nM, respectively.
For `COc1cc(CCc2cnc3[nH]c(-c4cnn(C(C)CC#N)c4)cc3n2)cc(OC)c1` (stereo not drawn) [Example 36, 3-(4-(2-(3,5-dimethoxyphenethyl)-5H-pyrrolo[2,3-b]pyrazin-6-yl)-1H-pyrazol-1-l)butanenitrile], the IC50 in test [1], in test [2] (setting [4]) and in test [3] (class symbols) was under 100 nM in each case.
As for `COc1cc(CCc2cnc3[nH]c(-c4cnn(CC(=O)N5CCN(C)CC5)c4)cc3n2)cc(OC)c1` [Example 44, 2-(4-(2-(3,5-dimethoxyphenethyl)-5H-pyrrolo[2,3-b]pyrazin-6-yl)-1H-pyrazol-1-yl)-1-(4-methylpiperazin-1-yl)ethanone], the IC50 in test [1], in test [2] (setting [4]) and in test [3] (class symbols) was under 100 nM each time.
For `COc1cc(CCc2cnc3[nH]c(-c4ccccc4)cc3n2)cc(OC)c1` [Example 3, 2-(3,5-dimethoxyphenethyl)-6-phenyl-5H-pyrrolo[2,3-b]pyrazine], the IC50 in test [1], in test [2] (setting [4]) and in test [3] (class symbols) was under 100 nM throughout.
Consider `COc1cc(CCc2cnc3[nH]c(-c4ccc5c(c4)CC(=O)N5)cc3n2)cc(OC)c1` [Example 80, 5-(2-(3,5-Dimethoxyphenethyl)-5H-pyrrolo[2,3-b]pyrazin-6-yl)indolin-2-one], for which the IC50 in test [1], in test [2] (setting [4]) and in test [3] (class symbols) was under 100 nM in each case.
Consider `COc1cc(OC)c(F)c(CCc2cnc3[nH]c(-c4cnn(CCN(C)C)c4)cc3n2)c1F` [Example 87, 2-(4-(2-(2,6-difluoro-3,5-dimethoxyphenethyl)-5H-pyrrolo[2,3-b]pyrazin-6-yl)-1H-pyrazol-1-yl)-N,N-dimethylethanamine], for which the IC50 in test [1], in test [2] (setting [4]) and in test [3] (class symbols) was under 100 nM in each case.
Turning to `COc1cc(CCc2cnc3[nH]c(-c4ccc(N5CCN(CCO)CC5)cc4)cc3n2)cc(OC)c1` [Example 71, 2-(4-(4-(2-(3,5-Dimethoxyphenethyl)-5H-pyrrolo[2,3-b]pyrazin-6-yl)phenyl)piperazin-1-yl)ethanol], the IC50 in test [1], in test [2] (setting [4]) and in test [3] (class symbols) was under 100 nM throughout.
Take `COc1cc(CCc2cnc3[nH]c(-c4cnn(C(CC#N)C5CCCC5)c4)cc3n2)cc(OC)c1` (stereo not drawn) [Example 35, 3-cyclopentyl-3-(4-{2-[2-(3,5-dimethoxyphenyl)ethyl]-5H-pyrrolo[2,3-b]pyrazin-6-yl}-1H-pyrazol-1-yl)propanenitrile]: the IC50 in test [1], in test [2] (setting [4]) and in test [3] (class symbols) was under 100 nM in each case.
With `COc1cc(CCc2cnc3[nH]c(-c4ccc(C5CCN(C)CC5)cc4)cc3n2)cc(OC)c1` [Example 22, 2-[2-(3,5-dimethoxyphenyl)ethyl]-6-[4-(1-methylpiperidin-4-yl)phenyl]-5H-pyrrolo[2,3-b]pyrazine], the IC50 in test [1], in test [2] (setting [4]) and in test [3] (class symbols) was under 100 nM each time.
As to `COc1cc(OC)c(Cl)c(CCc2cnc3[nH]c(-c4ccc(N5CCN(C)CC5)cc4)cc3n2)c1Cl` [Example 49, 2-[2-(2,6-dichloro-3,5-dimethoxyphenyl)ethyl]-6-[4-(4-methylpiperazin-1-yl)phenyl]-5H-pyrrolo[2,3-b]pyrazine], the IC50 in test [1], in test [2] (setting [4]) and in test [3] (class symbols) was under 100 nM in each case.
In the case of `COc1cc(CCc2cnc3[nH]c(-c4cnn(CCN(C)C)c4)cc3n2)cc(OC)c1` [Example 34, 2-(4-{2-[2-(3,5-dimethoxyphenyl)ethyl]-5H-pyrrolo[2,3-b]pyrazin-6-yl}-1H-pyrazol-1-yl)-N,N-dimethylethanamine], the IC50 in test [1], in test [2] (setting [4]) and in test [3] (class symbols) was under 100 nM in each case.
`COc1cc(CCc2cnc3[nH]c(-c4ccc(CO)cc4)cc3n2)cc(OC)c1` [Example 13, (4-{2-[2-(3,5-dimethoxyphenyl)ethyl]-5H-pyrrolo[2,3-b]pyrazin-6-yl}phenyl)methanol]: the IC50 in test [1], in test [2] (setting [4]) and in test [3] (class symbols) was under 100 nM each time.
For `COc1cc(CCc2cnc3[nH]c(-c4cnn(CCN5CCC(O)CC5)c4)cc3n2)cc(OC)c1` [Example 40, 1-[2-(4-{2-[2-(3,5-dimethoxyphenyl)ethyl]-5H-pyrrolo[2,3-b]pyrazin-6-yl}-1H-pyrazol-1-yl)ethyl]piperidin-4-ol], the IC50 in test [1], in test [2] (setting [4]) and in test [3] (class symbols) was under 100 nM throughout.
Turning to `CNC(=O)c1cc(-c2cc3nc(CCc4cc(OC)cc(OC)c4)cnc3[nH]2)ccn1` [Example 73, 4-(2-(3,5-Dimethoxyphenethyl)-5H-pyrrolo[2,3-b]pyrazin-6-yl)-N-methylpicolinamide], the concentration for half-maximal inhibition (IC50) in test [1], in test [2] (setting [4]) and in test [3] (class symbols) was under 100 nM in each case.
With `COc1cc(CCc2cnc3[nH]c(-c4cnn(C5CCOCC5)c4)cc3n2)cc(OC)c1` [Example 32, 2-[2-(3,5-dimethoxyphenyl)ethyl]-6-[1-(tetrahydro-2H-pyran-4-yl)-1H-pyrazol-4-yl]-5H-pyrrolo[2,3-b]pyrazine], the IC50 in test [1], in test [2] (setting [4]) and in test [3] (class symbols) was under 100 nM each time.
Consider `COc1cc(CCc2cnc3[nH]c(-c4ccc(N5CCN(C)CC5)cc4)c(Br)c3n2)cc(OC)c1` [Example 46, 7-bromo-2-[2-(3,5-dimethoxyphenyl)ethyl]-6-[4-(4-methylpiperazin-1-yl)phenyl]-5H-pyrrolo[2,3-b]pyrazine], for which the IC50 in test [1], in test [2] (setting [4]) and in test [3] (class symbols) was under 100 nM throughout.
On to `COc1cc(CCc2cnc3[nH]c(-c4ccc(N5CCN(C)CC5=O)cc4)cc3n2)cc(OC)c1` [Example 76, 1-(4-(2-(3,5-Dimethoxyphenethyl)-5H-pyrrolo[2,3-b]pyrazin-6-yl)phenyl)-4-methylpiperazin-2-one], for which the IC50 in test [1], in test [2] (setting [4]) and in test [3] (class symbols) was under 100 nM in each case.
`CCN(CC)CC#Cc1cc2nc(CCc3cc(OC)cc(OC)c3)cnc2[nH]1` [Example 27, 3-{2-[2-(3,5-dimethoxyphenyl)ethyl]-5H-pyrrolo[2,3-b]pyrazin-6-yl}-N,N-diethylprop-2-yn-1-amine]: the IC50 – broadly, the concentration needed to halve the response being measured – in test [1] is under 100 nM; in test [2] it was 100 to 500 nM; in test [3] (numeric bounds), over 2000 nM.
Regarding `COc1cc(CCc2cnc3[nH]c(-c4ccc(N5CCN(C)CC5)cc4)cc3n2)cc(OC)c1` [Example 1, 2-[2-(3,5-dimethoxyphenyl)ethyl]-6-[4-(4-methylpiperazin-1-yl)phenyl]-5H-pyrrolo[2,3-b]pyrazine], the IC50 in test [1], in test [2] (setting [4]) and in test [3] (class symbols) was under 100 nM throughout.
